Legend:
Histamine H1 [1] = molecular target: T1, Histamine H1 (Cavia porcellus, UniProt P31389); experiment: Receptor binding assay; design: species or system Guinea Pig; conditions: sarsasapogenin 10 μM
T1 construct: host or cells: tissue or cell homogenate, not specified
Description: (§1) The receptor binding was investigated using the following method: Sarsasapogenin was incubated with tissue or cell homogenate that expressed the receptor of interest and a known concentration a radiolabelled compound with affinity for the receptor of interest. After the incubation period the non-bound radiolabelled compound was removed and the amount of specific binding was quantified. The amount of specific binding in the presence and absence of sarsasapogenin were compared and the percent inhibition of the binding of the radiolabelled compound by sarsasapogenin was calculated. The source of the receptor, the incubation conditions, the radiolabelled compound used varied depending on each specific assay.

Serotonin 5-HT1 = experiment: Receptor binding assay; design: species or system Rat; conditions: sarsasapogenin 10 μM
Description: as §1

[2] = test system: Adrenergic β, non selective; experiment: Receptor binding assay; design: species or system Rat; conditions: sarsasapogenin 10 μM
Description: as §1

GABAA = experiment: Receptor binding assay; design: species or system Rat; conditions: sarsasapogenin 10 μM
Description: as §1

[3] = test system: Adrenergic α1, non selective; experiment: Receptor binding assay; design: species or system Rat; conditions: sarsasapogenin 10 μM
Description: as §1

Glutamate = experiment: Receptor binding assay; design: species or system Rat; conditions: sarsasapogenin 10 μM
Description: as §1

[4] = test system: Adrenergic α2, non selective; experiment: Receptor binding assay; design: species or system Rat; conditions: sarsasapogenin 10 μM
Description: as §1

[5] = Long term oral toxicity study, rats; assay type: in vivo; conditions: high doses, up to 26 week in rats
[6] = test system: Glycine, Strychnine-Sensitive; experiment: Binding assay; design: species or system Rat; conditions: smilagenin 1 μM
[7] = molecular target: Protein Serine/Threonine Kinase, MAPK3 (ERK1) (Homo sapiens, UniProt P27361); experiment: Functional assay; assay type: biochemical; conditions: smilagenin 1 μM
Description: (§2) The enzyme activity modulation was investigated using the following method: Sarsasapogenin was incubated with each enzyme plus a specific substrate for each enzyme. After the incubation period the reaction was stopped and the reduction of the specific substrate or the increase in a specific product in the absence and presence of sarsasapogenin was measured and the percent inhibition of the reaction in the presence of sarsasapogenin was calculated. The amount of enzyme used, the incubation conditions, the substrate used and the method of quantification varied depending on each specific assay.
(§3) Using the same methods as described above, the binding of smilagenin (1 μM) to the receptors listed in Table 2 below, and the effect of smilagenin on the activity of the enzymes listed in Table 2 below, were investigated.

[8] = molecular target: Protein Tyrosine Kinase, NTRK1 (trkA) (Homo sapiens, UniProt P04629); experiment: Functional assay; assay type: biochemical; conditions: smilagenin 1 μM
Description: as §2, §3

[9] = molecular target: Protein Serine/Threonine Kinase, AKT3 (PRKBG) (Homo sapiens, UniProt Q9Y243); experiment: Functional assay; assay type: biochemical; conditions: smilagenin 1 μM
Description: as §2, §3

Functional assay = assay type: biochemical; conditions: smilagenin 1 μM
Description: as §2, §3

[10] = molecular target: Protein Tyrosine Kinase, SRC (Homo sapiens, UniProt P12931); experiment: Functional assay; assay type: biochemical; conditions: smilagenin 1 μM
Description: as §2, §3

[11] = test system: Vascular Endothelial Growth Factor (VEGF); experiment: Binding assay; design: species or system Human; conditions: smilagenin 1 μM
Description: as §1, §3

[12] = test system: Tumour Necrosis Factor (TNF), non-selective; experiment: Binding assay; design: species or system Human; conditions: smilagenin 1 μM
Description: as §1, §3

Chemokine CXCR1 = experiment: Binding assay; design: species or system Human; conditions: smilagenin 1 μM
Description: as §1, §3

Nicotinic Acetylcholine = experiment: Binding assay; design: species or system Human; conditions: smilagenin 1 μM
Description: as §1, §3

Insulin = Insulin (Rattus norvegicus, UniProt P15127); experiment: Binding assay; conditions: smilagenin 1 μM
How it was run: (§4)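 Steps: incubate receptor-expressing homogenate with known-concentration radioligand and 1 μM compound; remove unbound radioligand; quantify specific binding; calculate percent inhibition versus the compound-free condition.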

Calcitonin = Calcitonin (Homo sapiens, UniProt P30988); experiment: Binding assay; conditions: smilagenin 1 μM
How it was run: as §4

Adrenergic α2A = Adrenergic α2A (Homo sapiens, UniProt P08913); experiment: Binding assay; conditions: smilagenin 1 μM
How it was run: as §4

[13] = molecular target: T2, Vasoactive Intestinal Peptide, VIP1 (Homo sapiens, UniProt P32241); experiment: Binding assay; conditions: smilagenin 1 μM
T2 construct: host or cells: tissue or cell homogenate, not specified
How it was run: as §4

Neurotensin NT1 = Neurotensin NT1 (Homo sapiens, UniProt P30989); experiment: Binding assay; conditions: smilagenin 1 μM
How it was run: as §4

Opiate δ (OP1, DOP) = Opiate δ (OP1, DOP) (Homo sapiens, UniProt P41143); experiment: Binding assay; conditions: smilagenin 1 μM
How it was run: as §4

Prostanoid CRTH2 = Prostanoid CRTH2 (Homo sapiens, UniProt Q9Y5Y4); experiment: Binding assay; conditions: smilagenin 1 μM
How it was run: as §4

GABAB1A = molecular target: T3, GABAB1A (Homo sapiens, UniProt Q9UBS5); experiment: Binding assay; conditions: smilagenin 1 μM
T3 construct: host or cells: tissue or cell homogenate (not specified)
How it was run: as §4

Vasopressin V1A = molecular target: T4, Vasopressin V1A (Homo sapiens, UniProt P37288); experiment: Binding assay; conditions: smilagenin 1 μM
T4 construct: host or cells: tissue or cell homogenate, not specified
How it was run: as §4

Endothelin ETB = Endothelin ETB (Homo sapiens, UniProt P24530); experiment: Binding assay; conditions: smilagenin 1 μM
How it was run: as §4

Histamine H1 [14] = molecular target: T5, Histamine H1 (Homo sapiens, UniProt P35367); experiment: Binding assay; conditions: smilagenin 1 μM
T5 construct: host or cells: tissue or cell homogenate (not specified)
How it was run: as §4

[15] = molecular target: T6, Transporter, 5-hydroxytryptamine (SERT) (Homo sapiens, UniProt P31645); experiment: Binding assay; conditions: smilagenin 1 μM
T6 construct: host or cells: tissue or cell homogenate, not specified
How it was run: as §4

[16] = molecular target: 5-Hydroxytryptamine, 5-HT2B (Homo sapiens, UniProt P41595); experiment: Binding assay; conditions: smilagenin 1 μM
How it was run: as §4

Neuromedin U MNU1 = Neuromedin U MNU1 (Homo sapiens, UniProt Q9HB89); experiment: Binding assay; conditions: smilagenin 1 μM
How it was run: as §4

Ryanodine RyR3 = Ryanodine RyR3 (Rattus norvegicus, UniProt A0ABK0LPH6); experiment: Binding assay; conditions: smilagenin 1 μM
How it was run: as §4

Histamine H4 = Histamine H4 (Homo sapiens, UniProt Q9H3N8); experiment: Binding assay; conditions: smilagenin 1 μM
How it was run: as §4

Prostanoid CRTH2, sequence (Q9Y5Y4 whole entry): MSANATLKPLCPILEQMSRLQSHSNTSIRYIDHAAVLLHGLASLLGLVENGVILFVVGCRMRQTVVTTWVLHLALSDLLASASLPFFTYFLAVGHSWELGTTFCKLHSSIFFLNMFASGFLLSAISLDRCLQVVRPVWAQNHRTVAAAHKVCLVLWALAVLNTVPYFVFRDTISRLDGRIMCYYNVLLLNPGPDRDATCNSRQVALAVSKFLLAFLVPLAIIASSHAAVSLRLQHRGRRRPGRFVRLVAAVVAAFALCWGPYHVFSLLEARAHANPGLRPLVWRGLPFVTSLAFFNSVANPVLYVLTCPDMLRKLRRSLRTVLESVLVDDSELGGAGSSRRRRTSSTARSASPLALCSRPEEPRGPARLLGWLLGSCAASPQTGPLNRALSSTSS
5-Hydroxytryptamine, 5-HT2B, sequence (P41595 whole entry): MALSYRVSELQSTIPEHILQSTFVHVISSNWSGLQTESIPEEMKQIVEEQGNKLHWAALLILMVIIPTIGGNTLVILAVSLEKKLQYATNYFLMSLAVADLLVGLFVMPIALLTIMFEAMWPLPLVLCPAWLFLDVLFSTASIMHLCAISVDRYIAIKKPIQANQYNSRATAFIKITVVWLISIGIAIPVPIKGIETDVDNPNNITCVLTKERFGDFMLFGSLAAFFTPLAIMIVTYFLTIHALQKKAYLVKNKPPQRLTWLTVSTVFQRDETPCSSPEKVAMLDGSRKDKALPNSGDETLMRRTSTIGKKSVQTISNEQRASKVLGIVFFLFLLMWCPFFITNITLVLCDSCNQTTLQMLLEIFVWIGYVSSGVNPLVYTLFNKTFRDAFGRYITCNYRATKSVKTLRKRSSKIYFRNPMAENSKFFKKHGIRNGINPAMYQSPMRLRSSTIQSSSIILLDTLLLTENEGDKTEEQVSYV
Protein Tyrosine Kinase, NTRK1 (trkA), sequence (P04629 33-796): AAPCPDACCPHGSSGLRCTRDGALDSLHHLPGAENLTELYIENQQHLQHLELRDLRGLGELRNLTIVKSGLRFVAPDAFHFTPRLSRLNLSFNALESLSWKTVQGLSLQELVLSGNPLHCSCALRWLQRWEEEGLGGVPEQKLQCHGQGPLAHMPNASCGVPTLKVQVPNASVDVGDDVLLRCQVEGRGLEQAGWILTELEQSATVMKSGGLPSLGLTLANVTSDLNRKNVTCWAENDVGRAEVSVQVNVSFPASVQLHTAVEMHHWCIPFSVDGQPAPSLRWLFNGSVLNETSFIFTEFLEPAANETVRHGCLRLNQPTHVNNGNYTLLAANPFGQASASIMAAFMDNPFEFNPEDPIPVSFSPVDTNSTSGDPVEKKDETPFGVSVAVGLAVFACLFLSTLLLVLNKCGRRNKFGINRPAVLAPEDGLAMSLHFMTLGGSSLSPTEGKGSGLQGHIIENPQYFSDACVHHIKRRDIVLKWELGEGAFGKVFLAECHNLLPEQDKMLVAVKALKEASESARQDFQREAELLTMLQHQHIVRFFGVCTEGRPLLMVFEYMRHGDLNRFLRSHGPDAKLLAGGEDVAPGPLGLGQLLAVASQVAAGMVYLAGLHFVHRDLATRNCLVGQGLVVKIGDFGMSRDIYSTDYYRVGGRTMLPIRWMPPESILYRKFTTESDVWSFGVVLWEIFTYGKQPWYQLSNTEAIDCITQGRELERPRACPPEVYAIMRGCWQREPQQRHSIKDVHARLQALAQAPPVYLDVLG
Endothelin ETB, sequence (P24530 27-442): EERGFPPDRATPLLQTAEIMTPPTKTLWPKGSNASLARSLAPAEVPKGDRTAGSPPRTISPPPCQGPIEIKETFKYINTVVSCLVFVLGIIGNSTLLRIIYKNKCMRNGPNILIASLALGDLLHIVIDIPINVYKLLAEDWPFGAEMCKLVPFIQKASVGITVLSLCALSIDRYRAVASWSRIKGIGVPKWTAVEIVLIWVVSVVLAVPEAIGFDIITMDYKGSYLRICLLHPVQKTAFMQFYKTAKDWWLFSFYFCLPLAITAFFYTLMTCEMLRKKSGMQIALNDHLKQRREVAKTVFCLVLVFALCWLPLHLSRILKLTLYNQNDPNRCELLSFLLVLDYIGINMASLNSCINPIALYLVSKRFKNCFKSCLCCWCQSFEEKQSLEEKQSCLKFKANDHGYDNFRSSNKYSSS
Neurotensin NT1, sequence (P30989 whole entry): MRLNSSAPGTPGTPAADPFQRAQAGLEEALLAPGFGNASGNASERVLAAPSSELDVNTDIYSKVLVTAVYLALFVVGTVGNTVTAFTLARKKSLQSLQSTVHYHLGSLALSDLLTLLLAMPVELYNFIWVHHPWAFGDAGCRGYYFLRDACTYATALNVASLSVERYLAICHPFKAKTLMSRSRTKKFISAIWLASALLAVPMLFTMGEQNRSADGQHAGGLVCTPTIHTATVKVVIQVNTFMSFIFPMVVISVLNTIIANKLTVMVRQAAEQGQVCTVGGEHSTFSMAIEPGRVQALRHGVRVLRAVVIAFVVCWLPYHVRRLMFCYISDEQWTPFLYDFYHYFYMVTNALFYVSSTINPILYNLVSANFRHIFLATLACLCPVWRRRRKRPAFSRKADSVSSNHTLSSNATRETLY
Protein Serine/Threonine Kinase, AKT3 (PRKBG), sequence (Q9Y243 whole entry): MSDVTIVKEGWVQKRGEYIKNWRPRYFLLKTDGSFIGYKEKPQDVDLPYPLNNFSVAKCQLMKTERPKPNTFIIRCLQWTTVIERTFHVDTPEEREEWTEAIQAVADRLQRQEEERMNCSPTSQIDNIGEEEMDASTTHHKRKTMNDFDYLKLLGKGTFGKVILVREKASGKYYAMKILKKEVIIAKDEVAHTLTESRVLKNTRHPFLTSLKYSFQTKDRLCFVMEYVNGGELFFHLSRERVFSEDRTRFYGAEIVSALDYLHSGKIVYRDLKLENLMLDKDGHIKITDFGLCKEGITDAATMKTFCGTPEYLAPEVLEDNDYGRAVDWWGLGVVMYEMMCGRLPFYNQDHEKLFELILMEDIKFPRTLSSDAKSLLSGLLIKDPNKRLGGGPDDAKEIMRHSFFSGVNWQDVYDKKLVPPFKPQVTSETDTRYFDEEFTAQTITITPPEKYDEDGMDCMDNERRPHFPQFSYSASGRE
Adrenergic α2A, sequence (P08913 whole entry): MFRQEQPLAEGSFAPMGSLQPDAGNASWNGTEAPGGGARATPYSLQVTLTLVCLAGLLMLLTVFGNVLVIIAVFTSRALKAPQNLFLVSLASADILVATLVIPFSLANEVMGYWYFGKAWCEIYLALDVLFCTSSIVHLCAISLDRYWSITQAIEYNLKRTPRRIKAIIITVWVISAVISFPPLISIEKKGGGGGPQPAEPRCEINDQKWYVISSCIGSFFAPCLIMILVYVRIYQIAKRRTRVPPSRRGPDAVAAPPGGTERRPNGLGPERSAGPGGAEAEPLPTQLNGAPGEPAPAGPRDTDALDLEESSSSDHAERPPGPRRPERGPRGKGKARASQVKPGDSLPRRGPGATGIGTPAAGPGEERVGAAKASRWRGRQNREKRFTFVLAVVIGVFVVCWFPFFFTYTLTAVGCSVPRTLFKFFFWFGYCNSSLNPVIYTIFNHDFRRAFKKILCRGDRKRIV
Insulin, sequence (P15127 27-759 limits assumed): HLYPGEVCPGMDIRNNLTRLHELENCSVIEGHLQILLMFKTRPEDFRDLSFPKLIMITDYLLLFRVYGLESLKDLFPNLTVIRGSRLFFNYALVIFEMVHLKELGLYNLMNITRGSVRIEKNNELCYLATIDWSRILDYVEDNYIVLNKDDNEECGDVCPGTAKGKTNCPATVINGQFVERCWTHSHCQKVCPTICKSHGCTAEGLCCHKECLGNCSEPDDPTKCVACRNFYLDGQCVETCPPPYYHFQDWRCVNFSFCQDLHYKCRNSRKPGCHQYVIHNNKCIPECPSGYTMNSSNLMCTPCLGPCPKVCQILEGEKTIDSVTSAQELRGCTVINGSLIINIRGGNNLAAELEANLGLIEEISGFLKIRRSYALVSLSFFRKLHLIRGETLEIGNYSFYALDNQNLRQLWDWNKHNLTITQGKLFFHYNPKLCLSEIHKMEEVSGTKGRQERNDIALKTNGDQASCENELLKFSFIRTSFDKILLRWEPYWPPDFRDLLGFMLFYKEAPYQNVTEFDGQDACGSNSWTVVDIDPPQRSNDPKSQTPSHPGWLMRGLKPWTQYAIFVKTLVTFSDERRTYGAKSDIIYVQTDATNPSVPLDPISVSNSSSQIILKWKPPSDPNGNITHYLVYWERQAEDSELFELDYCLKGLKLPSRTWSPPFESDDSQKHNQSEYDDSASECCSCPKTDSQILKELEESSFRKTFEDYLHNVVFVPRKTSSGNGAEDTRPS
Insulin, sequence (P15127 764-1383 partner limits assumed): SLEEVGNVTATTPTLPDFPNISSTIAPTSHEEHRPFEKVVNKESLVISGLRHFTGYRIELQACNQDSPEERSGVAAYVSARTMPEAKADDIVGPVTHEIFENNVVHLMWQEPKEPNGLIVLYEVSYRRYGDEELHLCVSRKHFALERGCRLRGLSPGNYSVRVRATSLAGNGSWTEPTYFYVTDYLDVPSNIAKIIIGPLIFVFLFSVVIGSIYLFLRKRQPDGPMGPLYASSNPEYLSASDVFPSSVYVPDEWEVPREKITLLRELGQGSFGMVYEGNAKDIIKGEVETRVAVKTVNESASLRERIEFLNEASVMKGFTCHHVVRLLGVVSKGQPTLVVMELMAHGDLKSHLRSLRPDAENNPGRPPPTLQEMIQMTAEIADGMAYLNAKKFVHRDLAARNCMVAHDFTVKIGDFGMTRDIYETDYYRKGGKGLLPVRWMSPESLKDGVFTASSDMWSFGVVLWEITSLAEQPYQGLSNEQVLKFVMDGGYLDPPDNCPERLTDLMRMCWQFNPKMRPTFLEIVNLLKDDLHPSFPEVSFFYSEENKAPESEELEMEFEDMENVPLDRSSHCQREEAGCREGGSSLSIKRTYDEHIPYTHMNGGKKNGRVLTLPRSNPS

Q: Which “Effect (%)” value (Histamine H1 [1]) does the source give for C[C@H]1CC[C@@]2(OC1)O[C@H]1C[C@H]3[C@@H]4CC[C@@H]5C[C@@H](O)CC[C@]5(C)[C@H]4CC[C@]3(C)[C@H]1[C@@H]2C [Sarsasapogenin, sarsasapogenin] here?
A: NS (NS = No significant response. Significance was taken as ≧30% stimulation or inhibition)

Q: What about the “Effect (%)” value (Serotonin 5-HT1) of the same molecule?
A: NS (NS = No significant response. Significance was taken as ≧30% stimulation or inhibition)

Q: What about the “Effect (%)” value [2] of the same molecule?
A: NS (NS = No significant response. Significance was taken as ≧30% stimulation or inhibition)

Q: And the “Effect (%)” value (GABAA)?
A: NS (NS = No significant response. Significance was taken as ≧30% stimulation or inhibition)

Q: What about the “Effect (%)” value [3] of the same molecule?
A: NS (NS = No significant response. Significance was taken as ≧30% stimulation or inhibition)

Q: What about the “Effect (%)” value (Glutamate) of the same molecule?
A: NS (NS = No significant response. Significance was taken as ≧30% stimulation or inhibition)

Q: What about the “Effect (%)” value [4] of the same molecule?
A: NS (NS = No significant response. Significance was taken as ≧30% stimulation or inhibition)

Q: What about the Long term toxicity [5] of the same molecule?
A: without showing any signs of toxicity or adverse events

Q: For C[C@@H]1CC[C@@]2(OC1)O[C@H]1C[C@H]3[C@@H]4CC[C@@H]5C[C@@H](O)CC[C@]5(C)[C@H]4CC[C@]3(C)[C@H]1[C@@H]2C [Smilagenin, smilagenin], which “Effect (%)” value [6] is on record?
A: NS (NS = No significant response. Significance was taken as ≧30% stimulation or inhibition)

Q: What about the “Effect (%)” value [7] of the same molecule?
A: NS (NS = No significant response. Significance was taken as ≧30% stimulation or inhibition)

Q: And the “Effect (%)” value [8]?
A: NS (NS = No significant response. Significance was taken as ≧30% stimulation or inhibition)

Q: And the “Effect (%)” value [9]?
A: NS (NS = No significant response. Significance was taken as ≧30% stimulation or inhibition)

Q: And the “Effect (%)” value (Functional assay)?
A: NS (NS = No significant response. Significance was taken as ≧30% stimulation or inhibition)

Q: What about the “Effect (%)” value [10] of the same molecule?
A: NS (NS = No significant response. Significance was taken as ≧30% stimulation or inhibition)

Q: And the “Effect (%)” value [11]?
A: NS (NS = No significant response. Significance was taken as ≧30% stimulation or inhibition)

Q: And the “Effect (%)” value [12]?
A: NS (NS = No significant response. Significance was taken as ≧30% stimulation or inhibition)

Q: And the “Effect (%)” value (Chemokine CXCR1)?
A: NS (NS = No significant response. Significance was taken as ≧30% stimulation or inhibition)

Q: What about the “Effect (%)” value (Nicotinic Acetylcholine) of the same molecule?
A: NS (NS = No significant response. Significance was taken as ≧30% stimulation or inhibition)

Q: What about the “Effect (%)” value (Insulin) of the same molecule?
A: NS (NS = No significant response. Significance was taken as ≧30% stimulation or inhibition)

Q: And the “Effect (%)” value (Calcitonin)?
A: NS (NS = No significant response. Significance was taken as ≧30% stimulation or inhibition)

Q: And the “Effect (%)” value (Adrenergic α2A)?
A: NS (NS = No significant response. Significance was taken as ≧30% stimulation or inhibition)

Q: What about the “Effect (%)” value [13] of the same molecule?
A: NS (NS = No significant response. Significance was taken as ≧30% stimulation or inhibition)

Q: And the “Effect (%)” value (Neurotensin NT1)?
A: NS (NS = No significant response. Significance was taken as ≧30% stimulation or inhibition)

Q: And the “Effect (%)” value (Opiate δ (OP1, DOP))?
A: NS (NS = No significant response. Significance was taken as ≧30% stimulation or inhibition)

Q: And the “Effect (%)” value (Prostanoid CRTH2)?
A: NS (NS = No significant response. Significance was taken as ≧30% stimulation or inhibition)

Q: What about the “Effect (%)” value (GABAB1A) of the same molecule?
A: NS (NS = No significant response. Significance was taken as ≧30% stimulation or inhibition)

Q: What about the “Effect (%)” value (Vasopressin V1A) of the same molecule?
A: NS (NS = No significant response. Significance was taken as ≧30% stimulation or inhibition)

Q: And the “Effect (%)” value (Endothelin ETB)?
A: NS (NS = No significant response. Significance was taken as ≧30% stimulation or inhibition)

Q: What about the “Effect (%)” value (Histamine H1 [14]) of the same molecule?
A: NS (NS = No significant response. Significance was taken as ≧30% stimulation or inhibition)

Q: What about the “Effect (%)” value [15] of the same molecule?
A: NS (NS = No significant response. Significance was taken as ≧30% stimulation or inhibition)

Q: What about the “Effect (%)” value [16] of the same molecule?
A: NS (NS = No significant response. Significance was taken as ≧30% stimulation or inhibition)

Q: And the “Effect (%)” value (Neuromedin U MNU1)?
A: NS (NS = No significant response. Significance was taken as ≧30% stimulation or inhibition)

Q: And the “Effect (%)” value (Ryanodine RyR3)?
A: NS (NS = No significant response. Significance was taken as ≧30% stimulation or inhibition)

Q: What about the “Effect (%)” value (Histamine H4) of the same molecule?
A: NS (NS = No significant response. Significance was taken as ≧30% stimulation or inhibition)
